Several values for one entry are separate records, joined by “and”; a condition that tells them apart may be missing. Identical values can stand only once.
Tests used:
[1] = (§1) Human liver microsomal stability of compound in microsomal protein, PBS buffer pH 7.4, NADPH, glucose-6-phosphate and glucose-6-phosphate dehydrogenase media. Aliquotes were taken at 5 time points and after stopping the reaction, supernatants were analyzed using HPLC coupled with a tandem mass spectrometer. The elimination constant, half-life, and intrinsic clearance are determined as results using linear regression analysis. The assay has been performed by Enamine biological services, Bienta Ltd.The protocol is publicly available: dx.doi.org/10.17504/protocols.io.5qpvokdb9l4o/v1; format: ADME, microsomes, Microsome; conditions: for half-life / microsomal CLint: liver microsomes; for Remaining / Remaining (without cofactor): microsomes
[2] = as §1, with “Mouse” for “Human”; format: ADME, microsomes, Microsome; conditions: for half-life / microsomal CLint: liver microsomes; for Remaining / Remaining (without cofactor) / CLint / T1/2: microsomes
For Remaining (without cofactor) in this document: time not given here.
For Remaining in this document: time not given here.

Structure (SMILES)	half-life [1] [min]	microsomal CLint [1] [µL/min/mg]	Remaining [1]	Remaining (without cofactor) [1]	half-life [2] [min]	microsomal CLint [2] [µL/min/mg]	Remaining [2]	Remaining (without cofactor) [2]	CLint [2] [µL/min/mg]	T1/2 [2] [min]
CCNC(=O)c1cc2c(N[C@H](c3ccc4c(c3)OCCO4)C(C)C)ncnc2[nH]1	24.8	67	32%	100%	34.6	48	47%	94%		
CC(C)[C@H](Nc1ncnc2[nH]ccc12)c1ccc2c(c1)S(=O)(=O)CCC2	29.5	57	37%	92%	8.1	207	3%	104%		
CNC(=O)c1cccc(-c2cc3c(N[C@@H](c4ccc5c(c4)S(=O)(=O)CCC5)C(C)C)ncnc3[nH]2)c1	3.7	455	0%	93%	1.9	882	1%	101%		
CCNC(=O)c1cc2c(N[C@@H](c3ccc4c(c3)S(=O)(=O)CCC4)C(C)C)ncnc2[nH]1			15% and 0%	98% and 102%	19.5	85	21% and 43%	95% and 114%	54	30.8
Cc1nn(C)cc1-c1cc2c(N[C@@H](c3ccc4c(c3)S(=O)(=O)CCC4)C(C)C)ncnc2[nH]1	6.6	251	2%	116%	4.3	390	1%	103%		
COc1ccc([C@@H](Cc2nnn[nH]2)NC(=O)c2ncnc3[nH]ccc23)cc1	314	5	86%	110%	4400		96%	93%		
CC(C)[C@@H](Nc1ncnc2[nH]c(-c3ccc4cncn4c3)cc12)c1ccc2c(c1)S(=O)(=O)CCC2	8	210	4%	97%	9.8	170	6%	87%		
CNC(=O)c1cc2c(N[C@@H](c3ccc4c(c3)S(=O)(=O)CCC4)C(C)C)ncnc2[nH]1			25% and 0%	101% and 94%	36.5	46	47% and 69%	100% and 97%	23	71.6
CC(C)[C@H](Nc1ncnc2[nH]c(-c3cnn(CC(=O)N(C)C)c3)cc12)c1ccc2c(c1)OCCO2	3.3	500	0%	115%	48.1	35	54%	102%		
CC(C)[C@H](Nc1ncnc2[nH]c(-c3cnn(CC(N)=O)c3)cc12)c1ccc2c(c1)OCCO2	35.4	47	43%	102%	104	16	80%	104%		
CNC(=O)Cn1cc(-c2cc3c(N[C@@H](c4ccc5c(c4)OCCO5)C(C)C)ncnc3[nH]2)cn1	14	119	14%	92%	35.7	47	46%	90%		
